Experimental data from patent publication US20210254056A1, “IDENTIFICATION AND TARGETED MODULATION OF GENE SIGNALING NETWORKS” (CAMP4 THERAPEUTICS CORPORATION, priority 2017, published 2021).
Where two headings read alike, the source gives them in different places. Values belong to the compound of their own block, whether it stands above or below them.

Columns and labels:
[1] = test system: primary human hepatocytes; assay: RNA-seq of primary human hepatocytes treated with 39 small molecules (pilot and validation); settings: for Number (#) of genes having significantly changed expression: pilot RNA-seq study of Example 2, significance: FPKM≥0.5, log 2(fold change)≥1, q-value ≤0.05
[2] = test system: primary human hepatocytes
TF1 cells = assay: Biological activity of maximal compound dosages in TF1 cells; type: cell-based; settings: 10 μM dose
Procedure: (§1) The stock for each compound was at 10 mM and were diluted to 100 μM with RMPI+GCMSF (2% DMSO). Cells were collected and resuspended in 8 mL of RPMI+GMCSF at a concentration of 1×10^6 cells/mL. For the TF1 cells, at each well of a 6-well plate were added 1 mL of cells, 300 μL of 100 μM compound dilution, and 1.7 mL of RMPI+GCMSF+1.5% DMSO (1% final DMSO concentration in 3 mL total). One mL of the CI-CB-CD34+ cells, 300 μL of 100 μM compound dilution, and 700 μL of RMPI+GCMSF ([…]) were added to each well of a 6-well plate.
(§2) Compound dilutions were performed as described in Example 1. […] In a 6-well format, there were 1 million cells/well=1 million cells/ml=1000 cells/pl. […].

CI-CB-CD34+ cells = assay: Biological activity of maximal compound dosages in CI-CB-CD34+ cells; type: cell-based, human; settings: 10 μM dose
Procedure: as §1, §2

[3] = RNA-seq, p-value≤0.05, primary human hepatocytes, the modulated genes are listed in the block

SMILES: CN(C)CCC=C1c2ccccc2COc2ccccc21 [MT-723, Adapin (doxepin)]
- Log2 fold changes in gene expression: ACADVL [1]: 0
- Log2 fold changes in gene expression: ACAT2 [1]: −0.03
- Log2 fold changes in gene expression: ACSL1 [1]: 0.04
- Log2 fold changes in gene expression: ACSL5 [1]: 0.03
- Log2 fold changes in gene expression: AGPAT2 [1]: −0.05
- Log2 fold changes in gene expression: AGTR1 [1]: 0.03
- Log2 fold changes in gene expression: AHSG [1]: −0.07
- Log2 fold changes in gene expression: ALAS1 [1]: −0.01
- Log2 fold changes in gene expression: AMACR [1]: −0.11
- Log2 fold changes in gene expression: ARG1 [1]: 0.07
- Log2 fold changes in gene expression: CA2 [1]: −0.08
- Log2 fold changes in gene expression: CA12 [1]: 0.29
- Log2 fold changes in gene expression: CIDEC [1]: 0.09
- Log2 fold changes in gene expression: COL1A1 [1]: −0.14
- Log2 fold changes in gene expression: CPS1 [1]: −0.04
- Log2 fold changes in gene expression: CPT1A [1]: 0.06
- Log2 fold changes in gene expression: CPT2 [1]: −0.09
- Log2 fold changes in gene expression: CYP21A2 [1]: 0.08
- Log2 fold changes in gene expression: ECH1 [1]: −0.04
- Log2 fold changes in gene expression: ENO3 [1]: −0.21
- Log2 fold changes in gene expression: ETFDH [1]: 0.05
- Log2 fold changes in gene expression: FABP1 [1]: −0.08
- Log2 fold changes in gene expression: G6PC [1]: 0.03
- Log2 fold changes in gene expression: GHR [1]: −0.05
- Log2 fold changes in gene expression: GLA [1]: 0.01
- Log2 fold changes in gene expression: HGD [1]: 0
- Log2 fold changes in gene expression: HMGCR [1]: 0.02
- Log2 fold changes in gene expression: HMGCS2 [1]: −0.04
- Log2 fold changes in gene expression: HMOX1 [1]: 0.22
- Log2 fold changes in gene expression: HOGA1 [1]: 0.03
- Log2 fold changes in gene expression: HPGD [1]: 0.05
- Log2 fold changes in gene expression: IFT27 [1]: 0
- Log2 fold changes in gene expression: LDHA [1]: −0.09
- Log2 fold changes in gene expression: LPIN2 [1]: 0.03
- Log2 fold changes in gene expression: MOGAT2 [1]: 0.01
- Log2 fold changes in gene expression: NCF2 [1]: −0.21
- Log2 fold changes in gene expression: PCSK9 [1]: 0.11
- Log2 fold changes in gene expression: POR [1]: 0.1
- Log2 fold changes in gene expression: RMRP [1]: −0.14
- Log2 fold changes in gene expression: SLC2A2 [1]: −0.04
- Log2 fold changes in gene expression: SLC6A6 [1]: 0.17
- Log2 fold changes in gene expression: SLC25A20 [1]: −0.1
- Log2 fold changes in gene expression: SLC37A4 [1]: −0.17
- Log2 fold changes in gene expression: SLC51B [1]: −0.26
- Log2 fold changes in gene expression: SULT2A1 [1]: 0.03
- Log2 fold changes in gene expression: TAT [1]: −0.1
- Log2 fold changes in gene expression: TDO2 [1]: −0.14
- Log2 fold changes in gene expression: TMEM135 [1]: 0.05
- Log2 fold changes in gene expression: TNFSF11 [1]: −0.11
- Log2 fold changes in gene expression: VLDLR [1]: 0.01
- significant modulation of gene expression [1]: significantly (p-value≤0.05) modulate
- Log2 fold changes in gene expression: CYP2C19 [2]: 0.18
- Log2 fold changes in gene expression: CYP3A4 [2]: 0.14

- Log2 fold changes in gene expression: CYP2C19 [2]: 0.04
- Log2 fold changes in gene expression: CYP3A4 [2]: −0.08
SMILES: CC(C)(S)[C@@H](N)C(=O)O [MT-741, Penicillamine(D-)]
- Log2 fold changes in gene expression: ACADVL ([1]; RNA-seq validation, duplicates, gene ACADVL): −0.04
- Log2 fold changes in gene expression: ACAT2 ([1]; RNA-seq validation, duplicates, gene ACAT2): −0.05
- Log2 fold changes in gene expression: ACSL1 ([1]; RNA-seq validation, duplicates, gene ACSL1): 0
- Log2 fold changes in gene expression: ACSL5 ([1]; RNA-seq validation, duplicates, gene ACSL5): −0.05
- Log2 fold changes in gene expression: AGPAT2 ([1]; RNA-seq validation, duplicates, gene AGPAT2): −0.11
- Log2 fold changes in gene expression: AGTR1 ([1]; RNA-seq validation, duplicates, gene AGTR1): −0.04
- Log2 fold changes in gene expression: AHSG ([1]; RNA-seq validation, duplicates, gene AHSG): 0.03
- Log2 fold changes in gene expression: ALAS1 ([1]; RNA-seq validation, duplicates, gene ALAS1): −0.11
- Log2 fold changes in gene expression: AMACR ([1]; RNA-seq validation, duplicates, gene AMACR): −0.24
- Log2 fold changes in gene expression: ARG1 ([1]; RNA-seq validation, duplicates, gene ARG1): 0.01
- Log2 fold changes in gene expression: CA2 ([1]; RNA-seq validation, duplicates, gene CA2): −0.18
- Log2 fold changes in gene expression: CA12 ([1]; RNA-seq validation, duplicates, gene CA12): −0.02
- Log2 fold changes in gene expression: CIDEC ([1]; RNA-seq validation, duplicates, gene CIDEC): −0.24
- Log2 fold changes in gene expression: COL1A1 ([1]; RNA-seq validation, duplicates, gene COL1A1): 0.14
- Log2 fold changes in gene expression: CPS1 ([1]; RNA-seq validation, duplicates, gene CPS1): −0.12
- Log2 fold changes in gene expression: CPT1A ([1]; RNA-seq validation, duplicates, gene CPT1A): 0.04
- Log2 fold changes in gene expression: CPT2 ([1]; RNA-seq validation, duplicates, gene CPT2): −0.22
- Log2 fold changes in gene expression: CYP21A2 ([1]; RNA-seq validation, duplicates, gene CYP21A2): 0.04
- Log2 fold changes in gene expression: ECH1 ([1]; RNA-seq validation, duplicates, gene ECH1): −0.14
- Log2 fold changes in gene expression: ENO3 ([1]; RNA-seq validation, duplicates, gene ENO3): −0.17
- Log2 fold changes in gene expression: ETFDH ([1]; RNA-seq validation, duplicates, gene ETFDH): −0.12
- Log2 fold changes in gene expression: FABP1 ([1]; RNA-seq validation, duplicates, gene FABP1): −0.22
- Log2 fold changes in gene expression: G6PC ([1]; RNA-seq validation, duplicates, gene G6PC): 0.14
- Log2 fold changes in gene expression: GHR ([1]; RNA-seq validation, duplicates, gene GHR): −0.13
- Log2 fold changes in gene expression: GLA ([1]; RNA-seq validation, duplicates, gene GLA): −0.06
- Log2 fold changes in gene expression: HGD ([1]; RNA-seq validation, duplicates, gene HGD): −0.16
- Log2 fold changes in gene expression: HMGCR ([1]; RNA-seq validation, duplicates, gene HMGCR): 0.05
- Log2 fold changes in gene expression: HMGCS2 ([1]; RNA-seq validation, duplicates, gene HMGCS2): −0.03
- Log2 fold changes in gene expression: HMOX1 ([1]; RNA-seq validation, duplicates, gene HMOX1): 0.05
- Log2 fold changes in gene expression: HOGA1 ([1]; RNA-seq validation, duplicates, gene HOGA1): 0
- Log2 fold changes in gene expression: HPGD ([1]; RNA-seq validation, duplicates, gene HPGD): −0.06
- Log2 fold changes in gene expression: IFT27 ([1]; RNA-seq validation, duplicates, gene IFT27): −0.01
- Log2 fold changes in gene expression: LDHA ([1]; RNA-seq validation, duplicates, gene LDHA): 0.08
- Log2 fold changes in gene expression: LPIN2 ([1]; RNA-seq validation, duplicates, gene LPIN2): 0.17
- Log2 fold changes in gene expression: MOGAT2 ([1]; RNA-seq validation, duplicates, gene MOGAT2): 0.13
- Log2 fold changes in gene expression: NCF2 ([1]; RNA-seq validation, duplicates, gene NCF2): −0.19
- Log2 fold changes in gene expression: PCSK9 ([1]; RNA-seq validation, duplicates, gene PCSK9): 0.17
- Log2 fold changes in gene expression: POR ([1]; RNA-seq validation, duplicates, gene POR): −0.14
- Log2 fold changes in gene expression: RMRP ([1]; RNA-seq validation, duplicates, gene RMRP): −1.45
- Log2 fold changes in gene expression: SLC2A2 ([1]; RNA-seq validation, duplicates, gene SLC2A2): −0.22
- Log2 fold changes in gene expression: SLC6A6 ([1]; RNA-seq validation, duplicates, gene SLC6A6): −0.35
- Log2 fold changes in gene expression: SLC25A20 ([1]; RNA-seq validation, duplicates, gene SLC25A20): −0.31
- Log2 fold changes in gene expression: SLC37A4 ([1]; RNA-seq validation, duplicates, gene SLC37A4): 0.09
- Log2 fold changes in gene expression: SLC51B ([1]; RNA-seq validation, duplicates, gene SLC51B): −0.08
- Log2 fold changes in gene expression: SULT2A1 ([1]; RNA-seq validation, duplicates, gene SULT2A1): −0.18
- Log2 fold changes in gene expression: TAT ([1]; RNA-seq validation, duplicates, gene TAT): 0.09
- Log2 fold changes in gene expression: TDO2 ([1]; RNA-seq validation, duplicates, gene TDO2): −0.14
- Log2 fold changes in gene expression: TMEM135 ([1]; RNA-seq validation, duplicates, gene TMEM135): −0.16
- Log2 fold changes in gene expression: TNFSF11 ([1]; RNA-seq validation, duplicates, gene TNFSF11): 0.04
- Log2 fold changes in gene expression: VLDLR ([1]; RNA-seq validation, duplicates, gene VLDLR): 0.09
- significant modulation of gene expression [1, 3]: significantly (p-value≤0.05) modulate
- Number (#) of genes having significantly changed expression [1]: 9

- Log2 fold changes in gene expression: CYP2C19 [2]: 0.07
- Log2 fold changes in gene expression: CYP3A4 [2]: 0.02
SMILES: C[C@H](CS)C(=O)N1CCC[C@H]1C(=O)O [MT-835, Captopril]
- significant modulation of gene expression [1, 3]: significantly (p-value≤0.05) modulate
- Number (#) of genes having significantly changed expression [1]: 12

SMILES: COc1ccc(Cc2nccc3cc(OC)c(OC)cc23)cc1OC [MT-913, Papaverine]
- significant modulation of gene expression [1, 3]: significantly (p-value≤0.05) modulate
- Number (#) of genes having significantly changed expression [1]: 12
- Log2 fold changes in gene expression: CYP2C19 [2]: 0.09
- Log2 fold changes in gene expression: CYP3A4 [2]: 0.06

SMILES: COc1ccc(C2=N[C@@H](c3ccc(Cl)cc3)[C@@H](c3ccc(Cl)cc3)N2C(=O)N2CCNC(=O)C2)c(OC(C)C)c1 [Nutlin 3a]
- response of TF1 cells (biological activity, cell viability) (TF1 cells): did not significantly respond
- biological activity of CD34+ cells (cell viability) (CI-CB-CD34+ cells): reduced biological activity

SMILES: Cc1ccc(C(=O)Cn2c3c(sc2=N)CCCC3)cc1 [Pifithrin alpha, Pifithrin-α]
- response of TF1 cells (biological activity, cell viability) (TF1 cells): did not significantly respond
- biological activity of CD34+ cells (cell viability) (CI-CB-CD34+ cells): little or no effect
